According to patent US9498483B2, “2,3,5-trisubstituted thiophene compounds and uses thereof” (priority 2010, dated 2016):

What was measured:
HCV polymerase = target: T1, HCV polymerase (Hepatitis C virus genotype 1b, UniProt Q9WMX2); assay: Polymerase assay of Biological Example 1 (IC50 values of Table 3); type: biochemical; settings: IC50 values of Table 3, polymerase assay of Biological Example 1; read-out: NS5B-enzyme3
T1 construct: (His)6 (C); made in house; host or cells: XL-1 cells (E. coli, by own knowledge)
From the text: A number of assays have been published to assess these activities. A general method that assesses the gross increase of HCV virus in culture was disclosed in U.S. Pat. No. 5,738,985 to Miles et al. In vitro assays have been reported in Ferrari et al. Jnl. of Vir., 73:1649-1654, 1999; Ishii et al., Hepatology, 29:1227-1235, 1999; Lohmann et al., Jnl of Bio. Chem., 274:10807-10815, 1999; and Yamashita et al., Jnl. of Bio. Chem., 273:15479-15486, 1998.
WO 97/12033, filed on Sep. 27, 1996, by Emory University, listing C. Hagedorn and A. Reinoldus as inventors, which claims priority to U.S. Provisional Patent Application Ser. No. 60/004,383, filed on September 1995, described an HCV polymerase assay that can be used to evaluate the activity of the of the compounds described herein. Another HCV polymerase assay has been reported by Bartholomeusz, et al., Hepatitis C Virus (HCV) RNA polymerase assay using cloned HCV non-structural proteins; Antiviral Therapy 1996:1 (Supp 4) 18-24.

[1] = test system: HCV replicon I389luc-ubi-neo/NS3-3′/ET in ET (Huh-lucubineo-ET) cells; assay: Replicon assay (Biological Example 2), luciferase readout; type: cell-based; settings: Hepatitis C virus
Procedure: A cell line, ET (Huh-lucubineo-ET) was used for screening of compounds for inhibiting HCV RNA dependent RNA polymerase. The ET cell line was stably transfected with RNA transcripts harboring a I389luc-ubi-neo/NS3-3′/ET; replicon with firefly luciferase-ubiquitin-neomycin phosphotransferase fusion protein and EMCV-IRES driven NS3-5B polyprotein containing the cell culture adaptive mutations (E1202G; T12801; K1846T) (Krieger at al, 2001 and unpublished). The ET cells were grown in DMEM (Dulbeco's Modified Eagle's Medium), supplemented with 10% fetal calf serum, 2 mM Glutamine, Penicillin (100 IU/mL)/Streptomycin (100 μg/mL), 1× nonessential amino acids, and 250 μg/mL G418 (“Geneticin”). Reagents were all available through Life Technologies (Bethesda, Md.). The cells were plated at 0.5-1.0×10^4 cells/well in the 96 well plates and incubated for 24 hrs before adding test compound. The compounds were added to the cells to achieve a final concentration of 0.1 nM to 50 μM and a final DMSO (dimethylsulfoxide) concentration of 0.5%. Luciferase activity was measured 48 hours later by adding a lysis buffer and the substrate (Catalog number Glo-lysis buffer E2661 and Bright-Glo luciferase system E2620 Promega, Madison, Wis.). Cells should not be too confluent during the assay. Percent inhibition of replication data was plotted relative to no compound control. To determine the EC50 (effective concentration at which 50% of the maximum inhibition was observed), a 10 point, 3-fold serial dilution for each compound was used, which spans a concentration range of […]. EC50 values were calculated by fitting % inhibition at each concentration to the following equation: % inhibition=100%/[(EC50/[I])^b+1] where b was Hill's coefficient.
In other aspects the EC50 was equal to or less than 10 μM. In still other aspects the EC50 was equal to or less than 1 μM.

[2] = ET cells, luciferase activity 48 hours after compound

Row | SMILES | IC50 (HCV polymerase) | IC50 ([1]; between 100 nM and 5.0 uM) | IC50 [1, 2]
1 | O=C(O)c1sc(-c2ccccc2)cc1N1C(=O)CCC1C1CCCCC1 (stereo not shown) [Compound 1, 3-(2-Cyclohexyl-5-oxo-pyrrolidin-1-yl)-5-phenyl-thiophene-2-carboxylic acid] | 0.181 µM | 0.1 to 5 µM | –
2 | O=C(O)c1sc(-c2ccccc2)cc1N1C(=O)CCCC1C1CCCCC1 (stereo not shown) [Compound 4, 3-(2-Cyclohexyl-6-oxo-piperidin-1-yl)-5-phenyl-thiophene-2-carboxylic acid] | 0.073 µM | 0.1 to 5 µM | –
3 | Cc1ccc(-c2cc(N3C(=O)C(C)(O)CCC3C3CCCCC3)c(C(=O)O)s2)cc1 (stereo not shown) [Compound 5, 3-(6-Cyclohexyl-3-hydroxy-3-methyl-2-oxo-piperidin-1-yl)-5-p-tolyl-thiophene-2-carboxylic acid] | 0.052 µM | – | ≤ 0.1 µM
4 | CC(C)(C)C#Cc1cc(N2C(=O)[C@](C)(CCCO)OC[C@H]2C2CCCCC2)c(C(=O)O)s1 [Compound 7, 3-[(2S,5R)-5-Cyclohexyl-2-(3-hydroxy-propyl)-2-methyl-3-oxo-morpholin-4-yl]-5-(3,3-dimethyl-but-1-ynyl)-thiophene-2-carboxylic acid] | 0.006 µM | – | ≤ 0.1 µM
5 | CC(C)(C)C#Cc1cc(N2C(=O)[C@@H](CCO)OC[C@H]2C2CCCCC2)c(C(=O)O)s1 [Compound 8, 3-[(2R,5R)-5-Cyclohexyl-2-(2-hydroxy-ethyl)-3-oxo-morpholin-4-yl]-5-(3,3-dimethyl-but-1-ynyl)-thiophene-2-carboxylic acid] | 0.001 µM | – | ≤ 0.1 µM
6 | O=C1CC(=O)N(c2cc(-c3ccccc3)sc2C(=O)O)C(C2CCCCC2)C1 (stereo not shown) [Compound 9, 3-(2-Cyclohexyl-4,6-dioxo-piperidin-1-yl)-5-phenyl-thiophene-2-carboxylic acid] | 0.08 µM | – | ≥ 5 µM
7 | CC(C)(C)C#Cc1cc(N2C(=O)[C@@H](CC(O)CO)OC[C@H]2C2CCCCC2)c(C(=O)O)s1 (stereo partly drawn) [Compound 10, 3-[(2R,5R)-5-Cyclohexyl-2-(2,3-dihydroxy-propyl)-3-oxo-morpholin-4-yl]-5-(3,3-dimethyl-but-1-ynyl)-thiophene-2-carboxylic acid] | 0.003 µM | – | ≤ 0.1 µM
8 | CC(C)(C)C#Cc1cc(N2C(=O)C(O)(CCCO)CCC2C2CCCCC2)c(C(=O)O)s1 (stereo not shown) [Compound 11, 3-[6-Cyclohexyl-3-hydroxy-3-(3-hydroxy-propyl)-2-oxo-piperidin-1-yl]-5-(3,3-dimethyl-but-1-ynyl)-thiophene-2-carboxylic acid] | 0.008 µM | – | ≤ 0.1 µM
9 | O=C(O)c1sc(-c2ccccc2)cc1N1C(=O)CC(O)CC1C1CCCCC1 (stereo not shown) [Compound 12] | 0.045 µM | 0.1 to 5 µM | –
10 | O=C(O)c1sc(-c2ccccc2)cc1N1C(=O)COCC1C1CCCCC1 (stereo not shown) [Compound 13, 3-(3-Cyclohexyl-5-oxo-morphoIin-4-yl)-5-phenyl-thiophene-2-carboxylic acid] | 0.079 µM | 0.1 to 5 µM | –
11 | O=C(O)c1sc(-c2ccccc2)cc1N1C(=O)CNC[C@H]1C1CCCCC1 [Compound 15, 3-((R)-2-Cyclohexyl-6-oxo-piperazin-1-yl)-5-phenyl-thiophene-2-carboxylic acid] | 0.0735 µM | – | ≥ 5 µM
12 | O=C(O)c1sc(-c2ccccc2)cc1N1C(=O)CN(C(=O)c2ccccc2)C[C@H]1C1CCCCC1 [Compound 16, 3-((R)-4-Benzoyl-2-cyclohexyl-6-oxo-piperazin-1-yl)-5-phenyl-thiophene-2-carboxylic acid] | 0.42 µM | – | ≥ 5 µM
13 | O=C(O)c1sc(-c2ccccc2)cc1N1C(=O)CN(Cc2ccccc2)C[C@H]1C1CCCCC1 [Compound 17, 3-((R)-4-Benzyl-2-cyclohexyl-6-oxo-piperazin-1-yl)-5-phenyl-thiophene-2-carboxylic acid] | 0.024 µM | 0.1 to 5 µM | –
14 | Cc1ccc(S(=O)(=O)N2CC(=O)N(c3cc(-c4ccccc4)sc3C(=O)O)[C@H](C3CCCCC3)C2)cc1 [Compound 18, 3-[(R)-2-Cyclohexyl-6-oxo-4-(toluene-4-sulfonyl)-piperazin-1-yl]-5-phenyl-thiophene-2-carboxylic acid] | 0.002 µM | 0.1 to 5 µM | –
15 | CC(C)(C)C#Cc1cc(N2C(=O)CCCC2C2CCCCC2)c(C(=O)O)s1 (stereo not shown) [Compound 19, 3-(2-Cyclohexyl-6-oxo-piperidin-1-yl)-5-(3,3-dimethyl-but-1-ynyl)-thiophene-2-carboxylic acid] | 0.015 µM | – | ≤ 0.1 µM
16 | O=C(Cc1ccccc1)NC1CC(=O)N(c2cc(-c3ccccc3)sc2C(=O)O)C(C2CCCCC2)C1 (stereo not shown) [Compound 20, 3-(2-Cyclohexyl-6-oxo-4-phenylacetylamino-piperidin-1-yl)-5-phenyl-thiophene-2-carboxylic acid] | 0.128 µM | – | ≥ 5 µM
17 | O=C(COc1ccccc1)N[C@@H]1CC(=O)N(c2cc(-c3ccccc3)sc2C(=O)O)[C@@H](C2CCCCC2)C1 [Compound 22, 3-[(2R,4S)-2-Cyclohexyl-6-oxo-4-(2-phenoxy-acetylamino)-piperidin-1-yl]-5-phenyl-thiophene-2-carboxylic acid] | 0.02 µM | – | ≥ 5 µM
18 | N[C@H]1CC(=O)N(c2cc(-c3ccccc3)sc2C(=O)O)[C@@H](C2CCCCC2)C1 [Compound 23, 3-((2R,4R)-4-Amino-2-cyclohexyl-6-oxo-piperidin-1-yl)-5-phenyl-thiophene-2-carboxylic acid] | 0.245 µM | – | ≥ 5 µM
19 | O=C(N[C@H]1CC(=O)N(c2cc(-c3ccccc3)sc2C(=O)O)[C@H](C2CCCCC2)C1)c1ccccc1 [Compound 24, 3-((2S,4R)-4-Benzoylamino-2-cyclohexyl-6-oxo-piperidin-1-yl)-5-phenyl-thiophene-2-carboxylic acid] | 0.0445 µM | 0.1 to 5 µM | –
20 | O=C(N[C@H]1CC(=O)N(c2cc(-c3ccccc3)sc2C(=O)O)[C@@H](C2CCCCC2)C1)c1ccccc1 [Compound 25, 3-((2R,4R)-4-Benzoylamino-2-cyclohexyl-6-oxo-piperidin-1-yl)-5-phenyl-thiophene-2-carboxylic acid] | 0.173 µM | – | ≥ 5 µM
21 | CS(=O)(=O)N1CC(=O)N(c2cc(-c3ccccc3)sc2C(=O)O)C(C2CCCCC2)C1 (stereo not shown) [Compound 26, 3-(2-Cyclohexyl-4-methanesulfonyl-6-oxo-piperazin-1-yl)-5-phenyl-thiophene-2-carboxylic acid] | 0.067 µM | 0.1 to 5 µM | –
22 | O=C(O)c1sc(-c2ccccc2)cc1N1C(=O)CN(S(=O)(=O)Cc2ccccc2)CC1C1CCCCC1 (stereo not shown) [Compound 27, 3-(2-Cyclohexyl-6-oxo-4-phenylmethanesulfonyl-piperazin-1-yl)-5-phenyl-thiophene-2-carboxylic acid] | 0.022 µM | 0.1 to 5 µM | –
23 | N[C@H]1CC(=O)N(c2cc(-c3ccccc3)sc2C(=O)O)[C@H](C2CCCCC2)C1 [Compound 28, 3-((2S,4R)-4-Amino-2-cyclohexyl-6-oxo-piperidin-1-yl)-5-phenyl-thiophene-2-carboxylic acid] | 0.226 µM | – | ≥ 5 µM
24 | COc1ccc(S(=O)(=O)N2CC(=O)N(c3cc(-c4ccccc4)sc3C(=O)O)C(C3CCCCC3)C2)cc1C(=O)O (stereo not shown) [Compound 29, 3-[4-(3-Carboxy-4-methoxy-benzenesulfonyl)-2-cyclohexyl-6-oxo-piperazin-1-yl]-5-phenyl-thiophene-2-carboxylic acid] | 0.001 µM | 0.1 to 5 µM | –
25 | O=C(O)c1ccc(S(=O)(=O)N2CC(=O)N(c3cc(-c4ccccc4)sc3C(=O)O)C(C3CCCCC3)C2)cc1 (stereo not shown) [Compound 30, 3-[4-(4-Carboxy-benzenesulfonyl)-2-cyclohexyl-6-oxo-piperazin-1-yl]-5-phenyl-thiophene-2-carboxylic acid] | 0.003 µM | – | ≥ 5 µM
26 | CCCCCS(=O)(=O)N1CC(=O)N(c2cc(-c3ccccc3)sc2C(=O)O)C(C2CCCCC2)C1 (stereo not shown) [Compound 31, 3-[2-Cyclohexyl-6-oxo-4-(pentane-1-sulfonyl)-piperazin-1-yl]-5-phenyl-thiophene-2-carboxylic acid] | 0.047 µM | 0.1 to 5 µM | –
